According to patent US11446378B2, “Inhibitors of ephrin B1 for tumor treatment” (SANFORD HEALTH, priority 2017, dated 2022):

Test system: PC12 cells
Assay: PC12 neurite outgrowth assay (β-III tubulin quantification by CX7)
Assay type: cell-based, rat
Protocol: To test our hypothesis that tumor released exosomes induce neo-neurogenesis, we utilized PC12 cells, a rat pheochromocytoma cell line, as an in vitro screen. When stimulated with NGF (100 ng/ml), PC12 cells differentiate into neuron-like cells and extend neurites. We collected 10 ml of blood along with matched tumor tissue from three head and neck cancer patients (patient samples Pt1, Pt2, Pt3). We similarly collected blood from 3 healthy volunteers (Nl1, Nl2, Nl3) as well as adult tonsil tissue (TL). The tonsil was chosen as control tissue since the majority of HPV+ OPSCCs arise in the tonsil. Exosomes were purified, quantified by BCA protein assay and further validated by western blot analysis for the exosome markers CD9 and CD81 (FIG. 1E). To test whether they harbor neurite outgrowth activity, PC12 cells were treated with 3 μg exosomes, fixed 48 hours later and immunostained for β-III tubulin. Neurite outgrowth was quantified using the CellInSight™ CX7 High Content Analysis Platform and the number of neurites compared. The exosome yield from patient Pt1 was low allowing for analysis of only one replicate while quantities from Pt2 and Pt3 were sufficient for technical replicates. […]
The CellInSight CX7 High Content Analysis Platform performs automated cellular imaging for quantitative microscopy which was utilized to quantify neurite outgrowth. […]

With “NGF: recombinant nerve growth factor, positive control for PC12 neurite outgrowth” the “neurite outgrowth (number of β-III tubulin positive neurites)” value (PC12 cells fixed 48 hours after treatment, 3 μg exosomes or NGF 100 ng/ml) was “robustly” and the “neurite outgrowth (total number of beta-III tubulin positive neurites per well)” value (PC12 cells, 24 hour stimulation, recombinant NGF 100 ng/ml set at 100%) was “robust neurite outgrowth”.
